Laboratory results as given in US9120789B2, “1-(5-tert-butyl-2-phenyl-2H-pyrazol-3-yl)-3-[2-fluoro-4-(1-methyl-2-oxo-2,3-dihydro-1H-imidazo[4,5-b]pyridin-7-yloxy)-phenyl]-urea and related compounds and their use in therapy” (CANCER RESEARCH TECHNOLOGY LIMITED, priority 2010, dated 2015).

Legend:
[1] = test system: A375M human melanoma cells (mutant BRAF) xenograft; experiment: Xenograft study, mutant BRAF A375; type: in vivo, mice; details: for Factor of tumour volume reduction as compared to the control: over the timescale of the study
Method: Biological Methods—Xenograft Studies
SW620 human colorectal carcinoma cells (mutant RAS, 7×10^7) or A375M human melanoma cells (mutant BRAF, 10^7) were inoculated sub-cutaneously in suspension (0.2 mL) into the right flank of female Crl:CD1-Foxn1nu athymic mice. Groups were assigned to treatment following stratified allocation of tumour volumes. Treatment with test compound began between days 11-14 post-cell administration. For gavage, a suspension (DMSO:water, 1:19, v/v at 10 m L/kg) was administered. Control animals received a similar dosage of vehicle (DMSO:water, 1:19, v/v). Treatment with test compound was continued once daily for 24 doses.

[2] = test system: pERK in mutant BRAF WM266.4 cells; experiment: Assay B - cell based phospho-ERK assay; details: Homo sapiens, WM 266-4, 6 hours incubation
Method: (§1) Values for the blank (Empty Vector) are subtracted from all values. The DMSO controls are set as 100% activity and assay points (the response) are calculated as a percentage of the DMSO control. Data are plotted using Graphpad Prism software and a non-linear regression line is calculated using a variable slope sigmoidal dose-response equation: Y=Bottom+[Top−Bottom]/[1+10^((Log EC50−X)*HillSlope)] where X is the logarithm of concentration and Y is the response. The IC50 generated by this procedure is the concentration of the drug that produces a percentage control fluorescence value midway between the saturation, and zero-effect plateaus. Three independent assays are usually performed and the mean IC50 is reported. Biological Methods—Assay B—Cell Based Phosho-ERK Assay
Compounds were assessed using a cell-based assay which was performed according to the following protocol.
Plate out 16,000 mutant BRAF WM266.4 cells/well in 99 μL medium in a 96-well plate.
1. Add 1 μL inhibitor (test compound) to the cells (total […]).
2. Incubate the cells with test compound for 6 hours at 37° C.
3. Aspirate off the solution from all of the wells.
4. Fixate the cells with 100 μL 4% formaldehyde/0.25% Triton X-100 PBS per well.
5. Incubate the plate for 1 hour at 4° C.
6. Aspirate off the fixing solution and add 300 μL TBS per well.
7. Leave the plate overnight at 4° C.
1. Wash the plate 2× with 200 μL PBS per well.
2. Block with 100 μL 5% dried milk in TBS.
3. Incubate the plate for 20 minutes at 37° C.
4. Wash the plate 2× with 0.1% tween/H2O.
5. Add 50 μL of 3 μg/mL primary antibody pERK (Sigma M8159), diluted in 5% milk powder/TBS, to each well.
6. Incubate the plate for 2 hours at 37° C.
7. Wash the plate 3× with 0.1% tween/H2O.
8. Add 50 μL of 0.45 μg/mL secondary Europium-labelled anti-mouse antibody (Perkin Elmer) to each well.
9. Incubate the plate for 1 hour at 37° C.
10. Wash the plate 3× with 0.1% tween/H2O.
11. Add 100 μL enhancement solution (Perkin Elmer) to each well.
12. Leave the plate for approximately 10 minutes at room temperature before gently shaking the plate.
13. Read Europium Time Resolved Fluorescence in Victor2.
14. Wash the plate 2× with 0.1% tween/H2O.
15. Measure the protein concentration with BCA (Sigma) by adding 200 μL of solution per well.
16. Incubate the plate for 30 minutes at 37° C.
17. Read absorbance levels at 570 nm in a plate reader.
Note that Europium counts are normalised for protein levels by dividing counts by absorbance.
as §1, with “blank (no cells)” for “blank (Empty Vector)”, “the response).” for “the response.”, “Methods—Assay C—SRB Cell Proliferation” for “Methods—Assay B—Cell Based Phosho-ERK”, “Assay (SRB GI50)” for “Assay”

IC50 [2] [nM]	Compound	Factor of tumour volume reduction as compared to the control [1]	Effect on tumour volume as compared to the control (in words) [1]
260	Cn1c(=O)[nH]c2nccc(Oc3ccc(NC(=O)Nc4cc(C(C)(C)C)nn4-c4ccccc4)c(F)c3)c21 [AA-01, 1-(3-Tert-butyl-1-phenyl-1H-pyrazol-5-yl)-3-(2-fluoro-4-(1-N-methyl-2-oxo-2,3-dihydro-1H-imidazo[4,5-b]pyridin-7-yloxy)phenyl)urea]	about 2.5	
19	Cn1c(=O)[nH]c2nccc(Oc3ccc(NC(=O)Nc4cc(C(C)(C)C)nn4-c4ccccc4)c4ccccc34)c21 [BB-01, 1-(3-Tert-butyl-1-phenyl-1H-pyrazol-5-yl)-3-(4-(1-methyl-2-oxo-2,3-dihydro-1H-imidazo[4,5-b]pyridin-7-yloxy)naphthalen-1-yl)urea]		
26	Cc1ccc(-n2nc(C(C)(C)C)cc2NC(=O)Nc2ccc(Oc3ccnc4[nH]c(=O)n(C)c34)c3ccccc23)cc1 [BB-02, 1-(1-N-p-tolyl-3-tert-butyl-pyrazol-5-yl)-3-(4-(2-oxo-2,3-dihydro-1-N-methyl-1H-imidazo[4,5-b]pyridin-7-yl-oxy)naphthalen-1-yl)urea]	about 1.5	
620	CC(C)(C)c1cc(NC(=O)Nc2ccc(Oc3ccnc4[nH]c(=O)[nH]c34)cc2)n(-c2ccccc2)n1 [XX-01, 1-(5-Tert-butyl-2-phenyl-2H-pyrazol-3-yl)-3-[4-(2-oxo-2,3-dihydro-1H-imidazo[4,5-b]pyridin-7-yloxy)-phenyl]-urea]		
90	Cc1ccc(-n2nc(C(C)(C)C)cc2NC(=O)Nc2ccc(Oc3ccnc4[nH]c(=O)n(C)c34)cc2)cc1 [XX-02, 1-(1-N-p-tolyl-3-tert-butyl-pyrazol-5-yl)-3-(4-(2-oxo-2,3-dihydro-1-N-methyl-1H-imidazo[4,5-b]pyridin-7-yl-oxy)phenyl)urea]		at least to some degree effective
120	Cn1c(=O)n(C)c2c(Oc3ccc(NC(=O)Nc4cc(C(C)(C)C)nn4-c4ccccc4)c(F)c3)ccnc21 [XX-03, 1-(3-Tert-butyl-1-phenyl-1H-pyrazol-5-yl)-3-(4-(1,3-dimethyl-2-oxo-2,3-dihydro-1H-imidazo[4,5-b]pyridin-7-yloxy)-2-fluorophenyl)urea]		
200	CC(C)(C)c1cc(NC(=O)Nc2ccc(Oc3ccnc4[nH]c(=O)[nH]c34)cc2)n(-c2ccc(F)cc2)n1 [XX-04, 1-[5-tert-Butyl-2-(4-fluoro-phenyl)-2H-pyrazol-3-yl]-3-[4-(2-oxo-2,3-dihydro-1H-imidazo[4,5-b]pyridin-7-yloxy)-phenyl]urea]		
